Test results published in ChEMBL document CHEMBL1201862, “PubChem BioAssay data set” (2004).
Counter-ions that a name gives are not always drawn. The source made the active and inactive calls.

How the values were obtained:
[1] = molecular target: T1, Caspase-3 (Homo sapiens, UniProt P42574); assay: SAR Analysis of small molecule inhibitors of Sentrin-specific proteases (SENPs) using a Caspase-3 Selectivity assay. [Related pubchem assays (depositor defined):AID2540, AID2599, AID434973, AID489001]; assay type: functional
T1 sequence (P42574 whole entry): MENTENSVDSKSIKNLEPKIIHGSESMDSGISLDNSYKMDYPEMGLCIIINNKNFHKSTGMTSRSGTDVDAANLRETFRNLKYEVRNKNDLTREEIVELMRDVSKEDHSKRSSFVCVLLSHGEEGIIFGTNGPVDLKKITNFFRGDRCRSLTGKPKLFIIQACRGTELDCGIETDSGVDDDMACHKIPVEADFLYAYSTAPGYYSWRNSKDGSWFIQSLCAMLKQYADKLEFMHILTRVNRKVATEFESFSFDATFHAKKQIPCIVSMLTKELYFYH

[2] = molecular target: T2, Sentrin-specific protease 6 (Homo sapiens, UniProt Q9GZR1); assay: SAR Analysis of small molecule inhibitors of Sentrin-specific protease 6 (SENP6) using a Luminescent assay. [Related pubchem assays (depositor defined):AID2582, AID2599]; assay type: functional
T2 sequence (Q9GZR1 whole entry): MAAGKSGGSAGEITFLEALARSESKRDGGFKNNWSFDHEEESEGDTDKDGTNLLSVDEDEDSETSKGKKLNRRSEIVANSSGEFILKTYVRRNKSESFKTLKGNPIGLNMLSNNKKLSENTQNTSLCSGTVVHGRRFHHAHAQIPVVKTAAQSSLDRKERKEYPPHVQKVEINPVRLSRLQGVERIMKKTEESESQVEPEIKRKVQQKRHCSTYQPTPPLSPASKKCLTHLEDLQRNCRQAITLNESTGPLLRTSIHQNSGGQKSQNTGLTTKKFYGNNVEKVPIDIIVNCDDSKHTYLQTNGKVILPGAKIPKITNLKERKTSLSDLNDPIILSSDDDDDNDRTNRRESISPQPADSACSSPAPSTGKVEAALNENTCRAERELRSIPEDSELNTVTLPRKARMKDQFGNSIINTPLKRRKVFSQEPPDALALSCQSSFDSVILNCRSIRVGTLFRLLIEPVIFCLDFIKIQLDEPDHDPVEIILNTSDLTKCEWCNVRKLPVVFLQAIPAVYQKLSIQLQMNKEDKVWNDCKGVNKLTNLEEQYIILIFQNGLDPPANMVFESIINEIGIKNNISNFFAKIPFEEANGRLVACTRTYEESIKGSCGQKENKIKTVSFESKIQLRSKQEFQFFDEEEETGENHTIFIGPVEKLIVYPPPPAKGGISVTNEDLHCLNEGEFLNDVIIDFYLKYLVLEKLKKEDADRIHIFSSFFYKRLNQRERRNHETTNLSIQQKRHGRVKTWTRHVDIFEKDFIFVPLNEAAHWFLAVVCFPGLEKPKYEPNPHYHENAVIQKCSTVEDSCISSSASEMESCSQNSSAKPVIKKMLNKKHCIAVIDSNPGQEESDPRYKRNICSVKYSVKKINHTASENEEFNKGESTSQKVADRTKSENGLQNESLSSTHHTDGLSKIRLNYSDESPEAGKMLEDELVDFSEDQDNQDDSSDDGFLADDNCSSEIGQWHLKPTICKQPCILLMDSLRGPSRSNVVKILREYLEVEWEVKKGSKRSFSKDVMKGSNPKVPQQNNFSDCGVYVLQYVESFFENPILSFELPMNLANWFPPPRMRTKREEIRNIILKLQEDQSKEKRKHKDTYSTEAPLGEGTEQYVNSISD

[3] = molecular target: T3, Sentrin-specific protease 7 (Homo sapiens, UniProt Q9BQF6); assay: SENP7 protease inhibitors, SAR follow-up, biochemical, luminescence (AID 504497); assay type: functional
T3 sequence (Q9BQF6 whole entry): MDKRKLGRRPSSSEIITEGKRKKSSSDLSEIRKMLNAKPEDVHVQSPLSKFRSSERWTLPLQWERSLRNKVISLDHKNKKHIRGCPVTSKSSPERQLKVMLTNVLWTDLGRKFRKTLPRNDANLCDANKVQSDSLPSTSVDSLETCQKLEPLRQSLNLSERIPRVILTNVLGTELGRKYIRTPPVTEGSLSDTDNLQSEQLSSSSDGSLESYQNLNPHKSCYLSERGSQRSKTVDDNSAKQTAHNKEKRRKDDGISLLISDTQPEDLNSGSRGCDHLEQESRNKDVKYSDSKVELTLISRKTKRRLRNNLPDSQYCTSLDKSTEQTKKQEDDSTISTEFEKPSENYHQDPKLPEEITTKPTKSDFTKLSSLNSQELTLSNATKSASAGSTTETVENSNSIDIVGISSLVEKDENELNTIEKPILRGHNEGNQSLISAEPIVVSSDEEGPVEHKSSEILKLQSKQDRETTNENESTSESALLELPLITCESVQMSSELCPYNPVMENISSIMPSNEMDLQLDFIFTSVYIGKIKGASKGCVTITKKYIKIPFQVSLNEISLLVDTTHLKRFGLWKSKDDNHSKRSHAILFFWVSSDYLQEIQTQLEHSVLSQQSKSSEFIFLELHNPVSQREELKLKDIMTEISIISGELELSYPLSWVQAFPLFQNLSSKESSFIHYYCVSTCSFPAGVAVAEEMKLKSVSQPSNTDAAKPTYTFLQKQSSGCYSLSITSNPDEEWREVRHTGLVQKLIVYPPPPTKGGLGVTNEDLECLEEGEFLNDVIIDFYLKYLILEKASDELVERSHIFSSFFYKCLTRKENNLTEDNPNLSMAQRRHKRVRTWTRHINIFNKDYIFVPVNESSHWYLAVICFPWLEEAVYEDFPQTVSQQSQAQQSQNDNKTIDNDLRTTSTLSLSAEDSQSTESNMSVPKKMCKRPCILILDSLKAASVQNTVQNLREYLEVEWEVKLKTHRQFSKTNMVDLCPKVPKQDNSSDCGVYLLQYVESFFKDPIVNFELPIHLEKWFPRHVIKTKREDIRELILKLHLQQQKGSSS

[4] = molecular target: T4, Sentrin-specific protease 8 (Homo sapiens, UniProt Q96LD8); assay: SENP8 protease inhibitors, SAR follow-up, biochemical, luminescence (AID 504501); assay type: functional
T4 sequence (Q96LD8 whole entry): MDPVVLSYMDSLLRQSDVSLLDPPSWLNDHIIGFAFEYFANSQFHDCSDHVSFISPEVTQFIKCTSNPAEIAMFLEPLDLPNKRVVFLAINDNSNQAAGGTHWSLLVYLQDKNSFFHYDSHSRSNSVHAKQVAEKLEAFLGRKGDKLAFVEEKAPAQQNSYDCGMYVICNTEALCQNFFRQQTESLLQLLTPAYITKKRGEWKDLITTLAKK

[5] = molecular target: Prothrombin (Bos taurus, UniProt P00735); assay: thrombin inhibition, dose response, biochemical, fluorescence polarization, uHTS hits (AID 602369); assay type: functional
[6] = cells; assay type: functional, cell-based
[7] = molecular target: T5, Nuclear receptor subfamily 0 group B member 1 (Homo sapiens, UniProt P51843); assay type: functional, cell-based;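 note: HEK293T cells transfected with SF-1 and DAX-1 plus StAR promoter luciferase reporter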
T5 sequence (P51843 whole entry): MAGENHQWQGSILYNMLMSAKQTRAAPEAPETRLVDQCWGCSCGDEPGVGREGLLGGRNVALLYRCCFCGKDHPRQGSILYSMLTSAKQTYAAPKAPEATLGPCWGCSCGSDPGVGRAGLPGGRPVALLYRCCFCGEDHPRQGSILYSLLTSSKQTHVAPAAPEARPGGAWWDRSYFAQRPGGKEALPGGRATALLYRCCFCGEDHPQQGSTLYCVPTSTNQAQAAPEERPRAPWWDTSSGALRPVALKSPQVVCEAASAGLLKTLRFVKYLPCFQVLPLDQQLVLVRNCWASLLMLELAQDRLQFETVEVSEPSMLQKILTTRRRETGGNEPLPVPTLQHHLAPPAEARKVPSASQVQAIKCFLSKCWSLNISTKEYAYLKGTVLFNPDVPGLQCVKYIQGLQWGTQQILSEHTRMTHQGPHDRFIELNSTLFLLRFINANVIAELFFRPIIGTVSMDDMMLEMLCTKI

[8] = molecular target: 72 kDa type IV collagenase (Homo sapiens, UniProt P08253); assay: Dose Response validation of uHTS RPN11 inhibitor hits using a MMP-2 Fluorescence assay.; assay type: functional
[9] = system: HEK293; assay: inhibitors of LMP1-driven NF-kB reporter, dose response, cell-based, HEK293, luciferase, cherry-pick (AID 588343); assay type: functional; settings: Homo sapiens
[10] = molecular target: 26S proteasome non-ATPase regulatory subunit 14 (Homo sapiens, UniProt O00487); assay: inhibition of proteasome subunit RPN11 – biochemical, fluorescence polarization, uHTS hits, confirmation (AID 602368); assay type: functional
[11] = molecular target: Melanocortin receptor 4 (Homo sapiens, UniProt P32245); assay type: functional, cell-based;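 note: Cell-based assay with luminescence read-out, confirmatory dose-response testing for agonist activity of biased ligands at MC4R; human U2OS cells with tagged receptor and beta-arrestin; potency of agonists that increase receptor coupling to beta-arrestin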
[12] = growth suppression of PTEN-null colon cells, dose response, cell-based, HCT116 PTEN knockout (AID 1047); assay type: functional;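 note: HCT116 colon tumor cells with PTEN knocked out; cells exposed to compound for 60 hours before readout; potency for loss of cell viability measured by luminescence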
[13] = Luminescence Cell-Based Dose Confirmation HTS to Identify Inhibitors of Platelet Dense Granule Release. [Related pubchem assays: 1663 (Primary HTS), 1678 (Summary of Project)]; assay type: functional
[14] = system: INS1; assay: beta cell apoptosis inhibitors, cytokine rescue, dose response, luminescence, retest (AID 449756); assay type: functional, cell-based; settings: Rattus norvegicus;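 note: cell death triggered by IL-1 beta plus TNF-alpha plus IFN-gamma mixture; protective hits raise ATP signal compared with cytokine alone wells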
[15] = growth suppression of beta-catenin-knockout colon cells, dose response, cell-based, HCT116, human colon tumor (AID 1045); assay type: functional;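 note: HCT116 colon tumor cells with beta catenin knocked out; cells exposed to compound for 60 hours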
[16] = molecular target: Luciferin 4-monooxygenase (Photinus pyralis, UniProt P08659); assay: firefly luciferase enzyme inhibitors, dose response, biochemical, luminescence (AID 1891)
[17] = system: Vero; assay: Vero cell cytotoxicity, cytotoxicity control for flavivirus capping enzyme inhibitors (AID 588742); assay type: functional; settings: Chlorocebus sabaeus
[18] = molecular target: T6, Zinc finger protein mex-5 (Caenorhabditis elegans, UniProt Q9XUB2); assay: MEX-5/TCR-2 RNA interaction inhibitors, dose response, biochemical, C. elegans, fluorescence polarization (AID 1960)
T6 sequence (Q9XUB2 whole entry): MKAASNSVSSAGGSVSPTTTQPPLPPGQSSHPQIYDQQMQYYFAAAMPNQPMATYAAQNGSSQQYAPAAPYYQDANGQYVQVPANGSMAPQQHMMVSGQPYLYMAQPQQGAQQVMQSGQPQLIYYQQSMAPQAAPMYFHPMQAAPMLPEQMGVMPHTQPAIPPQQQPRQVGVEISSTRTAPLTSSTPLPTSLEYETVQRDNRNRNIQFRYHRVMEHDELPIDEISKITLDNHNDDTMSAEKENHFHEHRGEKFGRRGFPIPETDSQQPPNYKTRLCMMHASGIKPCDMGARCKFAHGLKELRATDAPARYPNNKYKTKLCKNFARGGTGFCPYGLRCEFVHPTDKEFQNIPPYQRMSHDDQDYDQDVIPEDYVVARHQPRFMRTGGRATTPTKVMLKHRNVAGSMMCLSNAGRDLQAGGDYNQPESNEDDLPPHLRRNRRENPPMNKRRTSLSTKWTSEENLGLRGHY

[19] = molecular target: T7, RNA-binding protein pos-1 (Caenorhabditis elegans, UniProt G5EF15); assay: inhibitors of POS-1/mex-3 RNA binding, dose response, biochemical, fluorescence polarization (AID 1964);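 note: purified POS-1 fused to maltose binding protein made in E. coli; potency of compounds blocking POS-1 binding to fluorescent RNA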
T7 sequence (G5EF15 whole entry): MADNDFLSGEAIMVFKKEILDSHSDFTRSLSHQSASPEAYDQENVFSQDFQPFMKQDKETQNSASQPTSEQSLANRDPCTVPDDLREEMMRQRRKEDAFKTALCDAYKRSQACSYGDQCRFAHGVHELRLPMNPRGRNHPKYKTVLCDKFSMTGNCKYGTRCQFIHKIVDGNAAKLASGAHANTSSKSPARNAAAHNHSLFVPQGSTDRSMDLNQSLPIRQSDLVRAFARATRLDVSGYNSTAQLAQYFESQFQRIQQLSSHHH

[20] = molecular target: T8, Endoribonuclease toxin MazF (Escherichia coli K-12, UniProt P0AE70); assay: MazF toxin RNase activators, dose response, biochemical, fluorescence, single-stranded RNA substrate, uHTS hits (AID 588481); assay type: functional
T8 sequence (P0AE70 whole entry): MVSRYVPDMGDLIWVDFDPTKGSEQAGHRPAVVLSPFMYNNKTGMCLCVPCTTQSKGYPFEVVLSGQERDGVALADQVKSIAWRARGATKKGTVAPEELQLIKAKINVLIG

[21] = molecular target: T8, Endoribonuclease toxin MazF; assay: fluorescent RNA oligo signal without MazF, dose response, counter-screen for MazEF activator project, biochemical, fluorescence, single-stranded RNase substrate (AID 588502); assay type: functional

Sequence of 26S proteasome non-ATPase regulatory subunit 14 (O00487 whole entry): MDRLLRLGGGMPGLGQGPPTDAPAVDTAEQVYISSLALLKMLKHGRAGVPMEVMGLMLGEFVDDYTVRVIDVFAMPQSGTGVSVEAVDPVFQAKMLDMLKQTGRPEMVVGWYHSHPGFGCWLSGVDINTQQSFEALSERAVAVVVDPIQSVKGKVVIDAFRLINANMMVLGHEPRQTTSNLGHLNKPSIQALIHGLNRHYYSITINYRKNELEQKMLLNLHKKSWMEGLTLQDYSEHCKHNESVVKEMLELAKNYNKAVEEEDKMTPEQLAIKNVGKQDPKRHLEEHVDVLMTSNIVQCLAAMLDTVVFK
Sequence of Luciferin 4-monooxygenase (P08659 whole entry): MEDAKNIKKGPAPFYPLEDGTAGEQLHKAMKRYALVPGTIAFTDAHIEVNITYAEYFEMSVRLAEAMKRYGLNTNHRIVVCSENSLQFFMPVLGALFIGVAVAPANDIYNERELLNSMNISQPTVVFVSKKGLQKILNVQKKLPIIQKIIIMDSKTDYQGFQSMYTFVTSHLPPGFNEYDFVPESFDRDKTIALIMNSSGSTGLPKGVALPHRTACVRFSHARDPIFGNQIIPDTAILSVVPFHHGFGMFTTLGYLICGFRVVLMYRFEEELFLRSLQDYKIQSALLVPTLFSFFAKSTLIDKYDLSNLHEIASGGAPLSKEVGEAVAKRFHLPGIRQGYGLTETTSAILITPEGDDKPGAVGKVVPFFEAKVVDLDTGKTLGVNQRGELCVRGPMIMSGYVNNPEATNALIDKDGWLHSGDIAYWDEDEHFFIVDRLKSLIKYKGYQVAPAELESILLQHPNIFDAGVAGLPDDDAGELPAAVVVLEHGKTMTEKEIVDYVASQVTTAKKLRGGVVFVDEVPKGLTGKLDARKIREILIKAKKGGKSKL
Sequence of 72 kDa type IV collagenase (P08253 whole entry): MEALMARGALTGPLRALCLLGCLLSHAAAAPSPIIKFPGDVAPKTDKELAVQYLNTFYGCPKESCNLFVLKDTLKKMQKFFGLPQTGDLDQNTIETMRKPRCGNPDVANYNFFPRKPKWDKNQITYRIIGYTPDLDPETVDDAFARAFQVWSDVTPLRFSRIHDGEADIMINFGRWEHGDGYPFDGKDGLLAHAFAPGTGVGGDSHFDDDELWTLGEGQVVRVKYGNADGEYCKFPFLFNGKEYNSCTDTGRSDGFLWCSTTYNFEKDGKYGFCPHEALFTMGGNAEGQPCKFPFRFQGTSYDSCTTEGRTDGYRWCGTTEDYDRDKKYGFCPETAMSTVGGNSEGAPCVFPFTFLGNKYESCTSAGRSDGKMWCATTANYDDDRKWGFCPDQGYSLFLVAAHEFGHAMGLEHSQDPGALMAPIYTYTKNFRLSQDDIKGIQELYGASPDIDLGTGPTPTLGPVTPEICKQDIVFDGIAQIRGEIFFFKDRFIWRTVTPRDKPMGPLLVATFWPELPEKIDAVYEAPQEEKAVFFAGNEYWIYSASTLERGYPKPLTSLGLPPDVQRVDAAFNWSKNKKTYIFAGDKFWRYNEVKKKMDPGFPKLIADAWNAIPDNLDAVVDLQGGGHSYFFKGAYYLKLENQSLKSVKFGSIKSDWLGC
Sequence of Melanocortin receptor 4 (P32245 whole entry): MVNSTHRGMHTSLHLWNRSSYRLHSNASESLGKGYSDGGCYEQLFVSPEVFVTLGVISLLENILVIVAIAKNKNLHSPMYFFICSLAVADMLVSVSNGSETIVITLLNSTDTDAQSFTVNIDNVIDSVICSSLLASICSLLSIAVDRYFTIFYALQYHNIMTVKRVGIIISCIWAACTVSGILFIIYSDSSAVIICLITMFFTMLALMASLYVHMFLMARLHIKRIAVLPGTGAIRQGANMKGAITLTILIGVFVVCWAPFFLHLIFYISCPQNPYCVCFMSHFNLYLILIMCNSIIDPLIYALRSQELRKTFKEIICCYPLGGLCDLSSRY

## O=[N+]([O-])c1ccc(-c2nc(/C=C/c3ccc(F)cc3)no2)cc1
[1]
  IC50: > 99 µM (inactive)
[2]
  IC50: > 99 µM (inactive)
[3]
  IC50: > 99 µM (inactive)
[4]
  IC50: > 99 µM (inactive)

## Cc1ccsc1/C=C/c1ccc2ccccc2n1
[5]
  IC50: 29.3 µM (active)
[6]
  IC50: > 67.5 µM (inactive)
[7]
  IC50: > 0.278 µM (active)
[8]
  IC50: > 100 µM (inactive)
[9]
  AC50: 15.8 µM (active)
[10]
  IC50: 23.4 µM (active)

## CCc1cccc2c(C(=O)CN3C(=O)c4ccccc4C3=O)c[nH]c12
[1]
  IC50: > 99 µM (inactive)
[2]
  IC50: > 99 µM (inactive)
[3]
  IC50: > 99 µM (inactive)
[4]
  IC50: > 99 µM (inactive)

## CCC(C)c1ccc(NC(S)=NC2CCN(Cc3ccccc3)CC2)cc1 (stereo not given)
[11]
  EC50: > 9.91 µM (active)
[12]
  EC50: 13.5 µM (active)
[13]
  EC50: > 112 µM (not active)
[14]
  AC50: 6.84 µM (active)
[15]
  EC50: 14.2 µM (active)
[16]
  EC50: > 112 µM (not active)

## CN1CCN(C(c2ccccc2)c2ccc(Cl)cc2)CC1 (stereo not given) [CHLORCYCLIZINE HYDROCHLORIDE]
[17]
  CC50: > 40 µM (active)

## COc1ccc2c(c1)c1nc3ccccc3nc1n2CCCN1C(=O)c2ccccc2C1=O
[18]
  EC50: 73.9 µM (inconclusive)
[19]
  EC50: 32.7 µM (active)
[20]
  EC50: > 99 µM (inactive)
[21]
  EC50: > 99 µM (inactive)
